What all share (assay type): functional, organism-based
The species entered for assay [1] is Gallus gallus. Nature of the assay: Inhibitory activity against second generation merozoids of Eimeria tenella in chick hepatocyte assay; value given as 0.2-1.0.
For assay [2], the species on record is Gallus gallus. Nature of the assay: Inhibitory activity against second generation merozoids of Eimeria tenella in chick hepatocyte assay in the absence of inhibitor; value given as 0.004-0.0008.
Assay [3] is filed under the species Gallus gallus. Nature of the assay: Inhibitory activity against second generation merozoids of Eimeria tenella in chick hepatocyte assay in the presence of iproniazid; value given as 0.004-0.0008.
The species named for assay [4] is Gallus gallus. Description: Inhibitory activity against second generation merozoids of Eimeria tenella in chick hepatocyte assay in the presence of Tranylcypromine; value given as 0.004-0.0008.
For assay [5], the species on record is Gallus gallus. Description: Inhibitory activity against second generation merozoids of Eimeria tenella in chick hepatocyte assay.
For assay [6], the species on record is Gallus gallus. Description: Inhibitory activity against second generation merozoids of Eimeria tenella in chick hepatocyte assay in the absence of inhibitor; Value given as 0.08-0.016.
Assay [7] is filed under the species Gallus gallus. Description: Inhibitory activity against second generation merozoids of Eimeria tenella in chick hepatocyte assay in the presence of iproniazid; Value given as 0.08-0.016.
The species entered for assay [8] is Gallus gallus. Nature of the assay: Inhibitory activity against second generation merozoids of Eimeria tenella in chick hepatocyte assay in the presence of Tranylcypromine; Value given as 0.08-0.016.
Assay [9] is filed under the species Gallus gallus. Description: Inhibitory activity against second generation merozoids of Eimeria tenella in chick hepatocyte assay in the absence of inhibitor; value given as 0.2-1.0.
The species named for assay [10] is Gallus gallus. Description: Inhibitory activity against second generation merozoids of Eimeria tenella in chick hepatocyte assay in the presence of Ketoconazole at 5 ug/ml; value given as 0.2-1.0.
For assay [11], the species on record is Gallus gallus. Nature of the assay: Inhibitory activity against second generation merozoids of Eimeria tenella in chick hepatocyte assay in the presence of SKF-525A at 5 ug/ml; value given as 0.2-1.0.
Assay [12] is filed under the species Gallus gallus. Nature of the assay: Inhibitory activity against second generation merozoids of Eimeria tenella in chick hepatocyte assay in the presence of alpha-naphthoflavone at 5 ug/ml; value given as 0.2-1.0.
The species named for assay [13] is Gallus gallus. Description: Inhibitory activity against second generation merozoids of Eimeria tenella in chick hepatocyte assay in the presence of Tranylcypromine; Value given as 1-5.
The species named for assay [14] is Gallus gallus. Description: Inhibitory activity against second generation merozoids of Eimeria tenella in chick hepatocyte assay in the presence of iproniazid; Value given as 1-5.

Bounds are passed on as bounds.

Take `COc1cc(NCCCC2(c3ccc(F)cc3)OCCO2)c2ncccc2c1`: the IC50 in [1] was determined as 0.2 p.p.m.

Compound `CO/N=C/CCCCNc1cc(OC)cc2cccnc12` registered an IC50 in [1] of 0.2 p.p.m.

`N#CC(c1ccc(Cl)cc1)c1c(Cl)cc(-n2ncc(=O)[nH]c2=O)cc1Cl` (stereo not given) [DICLAZURIL]: the IC50 in [2], in [3] and in assay [4] was 0.0008 p.p.m each time.

`COc1cc(NCCCC/C=N/Oc2ccccc2)c2ncccc2c1` returned an IC50 in assay [1] of 0.2 p.p.m.

In assay [1], `COc1cc(NCCCC/C=N/OC(=O)c2ccccc2)c2ncccc2c1` came in with an IC50 of 0.2 p.p.m.

Turning to `COc1cc(NCCCC/C=N/O)c2ncccc2c1`, in assay [5], the IC50 is above 1 p.p.m.

As for `CC[C@@H](C(=O)[C@@H](C)[C@@H](O)[C@H](C)[C@@H]1O[C@@H]([C@@H](CC)C(=O)O)CC[C@@H]1C)[C@H]1O[C@]2(C=C[C@@H](O)[C@]3(CC[C@@](C)([C@H]4CC[C@](O)(CC)[C@H](C)O4)O3)O2)[C@H](C)C[C@@H]1C` [SALINOMYCIN], the IC50 in assay [6], in assay [7] and in assay [8] was 0.016 p.p.m each time.

As to `CCO/N=C/CCCCNc1cc(OC)cc2cccnc12`, in assay [1], the IC50 stood at 0.2 p.p.m.

Turning to `COc1cc(NCCCC/C=N/OCc2ccc([N+](=O)[O-])cc2)c2ncccc2c1`, the IC50 in assay [5] was above 1 p.p.m.

The compound `COc1cc(NCCCC2(C)OCCO2)c2ncccc2c1` yielded an IC50 in assay [5] above 1 p.p.m.

In turn, `C=CCO/N=C/CCCCNc1cc(OC)cc2cccnc12` showed an IC50 in assay [1] of 0.2 p.p.m.

For the compound `CCCCCCCCCCOc1cc2c(O)c(C(=O)OCC)cnc2cc1OCC` [DECOQUINATE], the IC50 in assay [2], in assay [3] and in assay [4] was 0.0008 p.p.m each time.

Turning to `COc1cc(NCCCCCO)c2ncccc2c1`, the IC50 in [5] is given as above 1 p.p.m.

On to `COc1cc(NCCCCC2OCCO2)c2ncccc2c1`, for which, in [1], the IC50 amounted to 0.2 p.p.m.

The compound `COc1cc(NCCCC/C=N/OCC(=O)O)c2ncccc2c1` had an IC50 in [5] above 1 p.p.m.

With `COc1cc(NCCCCC(=O)O)c2ncccc2c1`, the IC50 in [5] was above 1 p.p.m.

Turning to `COc1cc(NCCCC2OCCO2)c2ncccc2c1`, the IC50 in [5] is reported as above 1 p.p.m.

Regarding `COc1cc(NCCCCCNC(C)C)c2ncccc2c1` [PENTAQUINE], the IC50 is on record as 0.2 p.p.m in assay [9]; 0.2 p.p.m in [10]; 0.2 p.p.m in assay [11]; 0.2 p.p.m in [12]; 1 p.p.m in [13]; 1 p.p.m in assay [14].

Take `COc1cc(NCCCC/C=N/OC(C)(C)C)c2ncccc2c1`: the IC50 in assay [1] turned out to be 0.2 p.p.m.

Values taken from ChEMBL document CHEMBL1130837, “8-Aminoquinolines as anticoccidials--II” (Bioorg Med Chem Lett, 1998).
